From patent publication US20110178154A1, “GENE EXPRESSION PROFILE THAT PREDICTS OVARIAN CANCER SUBJECT RESPONSE TO CHEMOTHERAPY” (priority 2007, published 2011)
d = 2'-deoxy (DNA); r = 2'-OH (RNA)

Assays:
[1] = test system: A2780CP20 ovarian cancer cell line; experiment: MTS proliferation assay: cisplatin sensitivity after siRNA pretreatment; type: cell-based; conditions: for fold change in cisplatin sensitivity: A2780CP20 cells, compared to siNEG
Method: Cell culture and RNA interference. Ovarian cancer cell lines were routinely maintained in medium supplemented with 10% fetal bovine serum and 2 mM L-glutamine. SKOV3 and OVCAR3 cell lines were maintained in RPMI-1640 medium, OVCA420 and OVCA432 were maintained in 105/199 medium and OVCA420 and CAOV3 cells were maintained in DMEM medium. For 3-(4,5-dimethylthiazol-2-yl)-5-(3-carboxymethoxyphenyl)-2-(4-sulfophenyl)-2H-tetrazolium (MTS) assays, transfections mediated by cationic lipid were performed in 96-well plates. Cells were seeded on a complex of the appropriate siRNA (QIAGEN® Inc., Germantown, Md.) and Oligofectamine (Invitrogen, Carlsbad, Calif.) in unsupplemented growth medium. Final amounts in each well were 50 nM siRNA, 0.5 ul Oligofectamine, and 3000 cells in 100 μL medium. The siRNA target sequences of the synthetic siRNAs were designed against the reference RNA sequence.
MTS proliferation assay. Cell line sensitivity to chemotherapeutic reagents such as cisplatin or taxol was determined by measuring formazan production from MTS (PROMEGA®, Madison, Wis.), with drug concentrations tested in octuplicates in each experiment. For example, serial dilutions of cisplatin or taxol were made shortly before addition to cells. At 48 hours after transfection and seeding, cells were washed by aspiration of the supernatant, and 150 uL of drug-containing medium is added. Another 48 hours later, the drug solution was aspirated and 120 uL MTS-containing medium is added according to the manufacturer's protocol (PROMEGA® #G3580, Madison, Wis.). The plates were incubated at 37° C. and read at 490 nm after 3 hours. Using GraphPad PRISM® 4.02 (GraphPad Software Inc., San Diego, Calif.), the drug concentrations were log-transformed and nonlinear regression is performed on the A490 data using the sigmoidal dose response model with variable slope. Mean EC50 values, standard errors, and 95% confidence intervals were determined from the logistic fits.
(§1) As described above in Example 1, A2780CP20 ovarian cancer cell lines were transfected with siPOLH-2 or siPOLH-5, treated with cisplatin starting 48 hours later, and assayed with MTS 48 hours thereafter. Viable cell number data was acquired by reading the fluorescence emissions at 490 nm. Using GraphPad Prism 4.02, cisplatin drug concentrations were log-transformed and nonlinear regression performed on the A490 data using the sigmoidal dose response model with variable slope to generate the IC50 curves. IC50 values and 95% confidence intervals were determined from the logistic fits.
as §1, with “A2780CP20” for “As described above in Example 1, A2780CP20”, “siREV3L-1” for “siPOLH-2”, “siREV3L-2,” for “siPOLH-5,”, “thereafter (as described above, including Example 1).” for “thereafter.”, “fits. […] Further, a 2.1 fold change in cisplatin sensitivity was detected for siREV3L-1 pretreatment and a 2.9 fold change in such sensitivity for siREV3L-2 pretreatment.” for “fits.”
as §1, with “FIG. 5 illustrates the effect of pretreatment with RNAi against POLH and REV3L on cisplatin resistance.” for “As described above in Example 1,”, “cotransfected” for “transfected”, “siPOLH-5 and siREV3L-2,” for “siPOLH-2 or siPOLH-5,”

[2] = test system: POLH; experiment: Western blot analysis for POLH after POLH siRNA treatment; type: cell-based; conditions: lysates at 24, 48, 72 and 96 hours; 5 ul of 1 ug/ul POLH-siRNA
Method: Cell lysates were collected and examined by Western blot analysis for POLH. After treating cells with 5 ul of 1 ug/ul POLH-siRNA, lysates were collected at 24, 48, 72 and 96 hours and then analyzed for down-regulation of POLH.

Row | Substance | cell sensitivity to cisplatin when compared to cells treated with siNEG [1] | fold change in cisplatin sensitivity [1] | POLH expression (down-regulation of POLH) [2]
1 | siREV3L-2: synthetic siRNA against REV3L (exon 17), Qiagen cat #SI00045633, SEQ ID NO:5 sense and SEQ ID NO:6 antisense (sense CACUGGAAUUAAUGCACAATT; antisense UUGUGCAUUAAUUCCAGUGTG; sugars from the 5' end r19 d2, backbone not given here) | significantly increased | 2.9 fold | 
2 | siPOLH-5: synthetic siRNA against POLH (exon 11), Qiagen cat #SI02663619, SEQ ID NO:11 sense and SEQ ID NO:12 antisense (sense GGUUGUGAGCAUUCGUGUATT; antisense UACACGAAUGCUCACAACCTG; sugars from the 5' end r19 d2, backbone not given here) | significantly increased | 1.9 fold | inhibit POLH RNA expression
3 | siPOLH-2: synthetic siRNA against POLH (exon 10), Qiagen cat #SI00089012, SEQ ID NO:8 sense and SEQ ID NO:9 antisense (sense CCAUUUAGGUGCUGAGUUATT; antisense UAACUCAGCACCUAAAUGGAG; sugars from the 5' end r19 d2, backbone not given here) | significantly increased | 1.6 fold | 
4 | siREV3L-1: synthetic siRNA against REV3L (exon 18), Qiagen cat #SI00045626, SEQ ID NO:2 sense and SEQ ID NO:3 antisense (sense GGAUGUAGUCAAACUGCAATT; antisense UUGCAGUUUGACUACAUCCAG; sugars from the 5' end r19 d2, backbone not given here) | significantly increased | 2.1 fold | 
